Reference: patent US12024498B2, “Radical compounds and methods of using thereof” (OHIO STATE INNOVATION FOUNDATION, priority 2017, dated 2024)
Read-outs that look alike come from different tables or passages of the source.

Biological target: 13C,15N-wt-huPrP23-144 fibrils (Homo sapiens, UniProt P04156)
[1] = 12 mM biradical in 6:3:1 d8-glycerol/D2O/H2O, 12 kHz MAS

Chain of 13C,15N-wt-huPrP23-144 fibrils (P04156 23-144 limits assumed): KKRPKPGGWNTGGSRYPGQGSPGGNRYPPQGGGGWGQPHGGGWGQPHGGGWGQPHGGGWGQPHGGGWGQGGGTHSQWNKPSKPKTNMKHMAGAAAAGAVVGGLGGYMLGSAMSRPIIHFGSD

Substance: TOAC-TOAC-Ser [TTS]
- Optimal recycle delay (12 mM biradical in 6:3:1 d8-glycerol/D2O/H2O): 1.52 s
- 1H T1 [1]: 1.29 s
- εDNP [1]: 18-25
- τDNP [1]: 1.21 s
- τDNP (12 mM biradical, huPrP23-144 fibril samples): 2 s
